Experimental data reported in US20130158024A1, “TRICYCLIC NECROSTATIN COMPOUNDS” (priority 2005, published 2013).
Entries after “also recorded” stand apart in the source; their conditions may differ.

Columns and labels:
[1] = test system: Jurkat cells; test: Apoptosis of Jurkat cells induced by FasL without or with cycloheximide; format: cell-based, human; conditions: FasL or FasL/CHX, no zVAD
Method: Jurkat cells were treated with 5 ng/ml of FasL without (A) or with cyclohexamide (CHX) (B) to induce apoptosis, or 5 ng/ml FasL, 1 μg/ml of CHX and 100 μM of zVAD.fmk to induce CICD (B). […] Cell viability was determined after 24 hours of incubation with indicated reagents using CellTiter-Glo ATP assay. The values represent viability relative to the control Jurkat cells without the treatment of FasL, which was set as 100% viability.
Cells were stained with DiOC6 or annexin V and EGFP-PI as described in FIG. 26A and FIG. 26B. […] Cell viability was determined by an ATP assay. Numbers represent viability normalized to that of the compound-treated cells in the absence of TNFα. […]
We seeded cells in 96-well plates (white plates for luminescent assays; black plates for fluorescent assays; clear plates for MTT assay) at the density of 5,000-10,000 cells per well for adherent cells or 20,000-50,000 cells per well for suspension cells in 100 μl of the appropriate phenol red-free media. After incubation, we determined cell viability using one of the following methods. For the ATP assay, we used luminescence-based commercial kits (CellTiter-Glo, Promega or ATPLite-M, PerkinElmer) and analyzed luminescence using a Wallac Victor II plate reader (PerkinElmer). For Sytox assay, we incubated cells with 1 μM Sytox Green reagent for thirty minutes at 37° C., and then performed fluorescent reading. […]

[2] = test system: FADD deficient Jurkat cells
[3] = test system: BALB/c 3T3 cells; test: CICD of BALB/c 3T3 cells induced by TNFα/zVAD.fmk; format: cell-based, mouse
[4] = test system: RIP kinase-induced necroptosis in FADD-deficient Jurkat cells; test: Necroptosis induced by dimerized RIP kinase in FADD-deficient Jurkat cells, FACS; format: cell-based, human; conditions: dimerizer AP1510, zVAD.fmk, 48 hours
Method: Percentage of PI-negative, GFP-positive cells (“Viability, %”) was determined by FACS. Numbers represent viability normalized to that of the compound-treated cells in the absence of dimerizer. Error bars represent standard deviations.

[5] = test system: Jurkat T cells; test: Necrosis (CICD) of Jurkat T cells induced by Fas ligand, cycloheximide and zVAD, ATP assay; format: cell-based, human; conditions: FasL/CHX/zVAD
Method in brief: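 Jurkat cells given FasL (5 ng/ml), cycloheximide (1 μg/ml) and zVAD.fmk (100 μM) to drive CICD, with compounds at the indicated amounts. Viability read as ATP by CellTiter-Glo after 36 h, relative to untreated cells without FasL (100%).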

methylthiohydantoin-tryptophane [Nec-1]
protection from apoptosis, in words [1]: but not apoptosis induced by FasL or FasL/CHX; also recorded: lack of cytoprotection by Nec-1 in apoptotic Jurkat cells treated with FasL-CHX for 24 hours; also recorded: but not by Nec-1; also recorded: could not be inhibited by Nec-1; also recorded: had no effect on FasL-CHX-induced accumulation of annexin V-positive and propidium iodide (PI)-negative cells | non-specific cytotoxicity, in words ([2]; 24 hours, ATP assay): does not induce non-specific cytotoxicity in FADD-deficient Jurkat cells | LD50 ([2]; compound in the absence of TNFα): 374 µM | inhibition of CICD in 3T3 cells, in words [3]: inhibited all published examples of necrotic cell death induced by DR activation in the presence of caspase inhibitors | inhibition of RIP kinase-induced necroptosis, in words [4]: inhibits RIP kinase-induced necroptosis; also recorded: inhibited by Nec-1 | inhibition of CICD/necrosis of Jurkat cells, in words [5]: protected against CICD induced by FasL/CHX/zVAD; also recorded: efficiently inhibited by Nec-1; also recorded: inhibited all published examples of necrotic cell death induced by DR activation in the presence of caspase inhibitors
